The values that follow come from patent US20110293545A1, “Dolichos Biflorus Extract For Use In Cosmetic Skin Treatment” (Cognis IP Management GmbH, priority 2009, published 2011).

Holding throughout (type): cell-based
One experiment relates to COL5A1. Kind of experiment: qRT-PCR of collagen V encoding gene COL5A1 in human dermal fibroblasts. The settings on record: 10 ng/ml, with carrier protein; 24 h incubation; relative to EF1α. As for the experimental part:
(§1) This test was performed to evaluate the stimulation efficacy of a Dolichos biflorus extract according to example 3 on the expression of collagen V encoding genes in human fibroblasts. As 2 genes are responsible of the production of collagen V, namely the genes COL5A1 and COL5A2, both gene expressions were analysed.
(§2) Human dermal fibroblasts (obtained from plastic surgery) were inoculated in standard DMEM medium of cell culture with 10% FCS (Invitrogen). When cell confluence was arisen, the substances to be tested were introduced in new DMEM without FCS. Fibroblasts were incubated during 24 h with the test substances, then total RNA was extracted using a commercial extraction kit (Nucleospin™ RNA II, Macherey-Nagel™, France). Quantification and quality control of total RNA were performed by measuring […] at 260 and 280 nm. […]
(§3) The reverse transcription step was performed with a reverse transcription (RT) kit (ThermoScript™ RT-PCR System, Invitrogen, France) using 0.1 μg of total RNA in a 20 μl final volume. The quantitative PCRs were performed on 2 μl of the RT mix with specific primers in a 20 μl final volume, according to the manufacturer's informations (LightCycler®480 SYBR Green I Master, Roche, France). […] Results, expressed as percentage RNA compared to the control, are the mean of three independent assays (table 3). […]
In general terms: Quantitative PCR measures a nucleic acid by following its amplification.

Another experiment has as its system COL5A2. Kind of experiment: qRT-PCR of collagen V encoding gene COL5A2 in human dermal fibroblasts. The settings on record: 10 ng/ml, with carrier protein; 24 h incubation; relative to EF1α. As for the experimental part: as §1, §2, §3
Another experiment relates to collagen I. Briefly: Stimulation of collagen I production (ELISA of released collagen peptides, Bradford cell proteins). The settings on record: dose 20 μg/ml; 72 hours; human dermal fibroblasts. As for the experimental part:
The purpose of this assay was the evaluation of the potential of Dolichos biflorus seed extract to increase the level of collagen I. Human dermal fibroblasts (from skin of aesthetic surgery) were cultivated in growth medium (DMEM Invitrogen N° 41965-039 with FCS at 10% (v/v)) for 24 hours at 37° C. […] The amount of cellular proteins was determined on cell homogenate (in a solution of NaOH 0.1 N) by the Bradford's method. The quantity of synthesized type I collagen was determined by measuring the amount of released collagen peptides in cell culture medium by an ELISA method (kit […]° from Osteomedical). They are expressed in % protein referring to the control (=standard medium with cells).

As to “TGF-β1: growth factor, positive reference; strong transcription activator of collagen genes; added with a carrier protein”, the “RNA level of COL5A1” value in the experiment on COL5A1 turned out to be 567 %/control. The “RNA level of COL5A2” value in the experiment on COL5A2 is recorded as 171 %/control.

For the compound `O=C1O[C@H]([C@@H](O)CO)C(O)=C1O` [Vitamin C], in the experiment with collagen I, the Cell proteins was determined as 77.3 % protein against control and the “Released type I collagen” value is recorded as 118.3 % protein against control.
